{"source": "patent US20060264372A1", "about": "“Process for the synchronization of ovulation for timed breeding without heat detection” (priority 2003, published 2006)", "key": {"[1]": {"system": "mature postpartum sows", "assay": "Intravulvar deslorelin at estrus detection in mature postpartum sows, AI breeding (Example 2)", "format": "in vivo, swine", "conditions": "per litter; 50 μg intravulvar at first estrus detection", "method": "Sows were assigned randomly in blocks of two to either control or to be injected intravulvar with 50 mcg of deslorelin in SAIB at the time of estrus detection for sows first detected in estrus in the a.m. and 12 hours later for those first detected in estrus in the p.m. Treated animals were bred AI upon detected estrus and again 24 hours later if still in estrus. Controls received a saline injection on first detected estrus behavior estrus detection and were bred according to the farm's normal procedures. Saline sows bred at detected estrus consistent with farm sows. Deslorelin sows injected intravulvar with 1 ml (50 μg deslorelin acetate) at first estrus detection and AI, then AI again if in estrus the next day. Live piglet number 0.6> in Deslorelin versus Saline sows."}, "[2]": {"system": "postpartum sows", "assay": "Timed deslorelin injection 96 hours post-weaning and single timed insemination without estrus detection (Example 3)", "format": "in vivo, swine", "conditions": "50 mcg in SAIB 96 hours post-weaning", "method": "Approximately 170 postpartum sows were randomly divided into two equal groups comprised of controls and treated. Following weaning, the controls were detected for estrus and bred following the normal standard operating procedures for the farms on which they resided. The treated sows received a 50 mcg dose of deslorelin in SAIB at 96 hours post-weaning and were bred with a single insemination 28±2 hours later with no regard to estrus detection. The sows were examined for pregnancy by ultrasound at 21 days and slaughtered around 28 days post breeding. The entire reproductive tract was removed and corpora lutea and embryos were counted."}}}
{"smiles": "CCNC(=O)[C@@H]1CCCN1C(=O)[C@H](CCCN=C(N)N)NC(=O)[C@H](CC(C)C)NC(=O)[C@@H](Cc1c[nH]c2ccccc12)NC(=O)[C@H](Cc1ccc(O)cc1)NC(=O)[C@H](CO)NC(=O)[C@H](Cc1c[nH]c2ccccc12)NC(=O)[C@H](Cc1cnc[nH]1)NC(=O)[C@@H]1CCC(=O)N1", "note": "[Deslorelin, deslorelin]", "values": [{"measurement": "Live piglet number, greater versus Saline sows", "setting": "[1]", "value": 0.6}, {"measurement": "Embryo Survival", "setting": "[2]", "value": 64, "unit": "%"}, {"measurement": "Sows Pregnant", "setting": "[2]; single insemination 28±2 hours later, 84 in group", "value": 60}]}
